Measured values: patent publication US20210084950A1, “SWEETENING COMPOSITION INDUCING SWEETNESS RESPONSE THROUGH MOLECULE OTHER THAN SWEET TASTE RECEPTOR (T1R2/T1R3)” (SUNTORY HOLDINGS LIMITED, priority 2018, published 2021)

Legend:
[1] = cited from earlier work; for Degree of Sweetness: sucrose per unit concentration Brix 1 defined as 1
[2] = target: T1, sweet taste receptor (T1R2/T1R3) (Homo sapiens, UniProt Q7RTX0+Q8TE23); assay: Sensory evaluation of remaining sweetness intensity of sweet substances with lactisole, relative to sucrose + lactisole; details: 100 ppm lactisole; solution 15-1 (12 w/v % sucrose + 100 ppm lactisole) = 100%; n=4
T1 sequence (Q8TE23 20-839): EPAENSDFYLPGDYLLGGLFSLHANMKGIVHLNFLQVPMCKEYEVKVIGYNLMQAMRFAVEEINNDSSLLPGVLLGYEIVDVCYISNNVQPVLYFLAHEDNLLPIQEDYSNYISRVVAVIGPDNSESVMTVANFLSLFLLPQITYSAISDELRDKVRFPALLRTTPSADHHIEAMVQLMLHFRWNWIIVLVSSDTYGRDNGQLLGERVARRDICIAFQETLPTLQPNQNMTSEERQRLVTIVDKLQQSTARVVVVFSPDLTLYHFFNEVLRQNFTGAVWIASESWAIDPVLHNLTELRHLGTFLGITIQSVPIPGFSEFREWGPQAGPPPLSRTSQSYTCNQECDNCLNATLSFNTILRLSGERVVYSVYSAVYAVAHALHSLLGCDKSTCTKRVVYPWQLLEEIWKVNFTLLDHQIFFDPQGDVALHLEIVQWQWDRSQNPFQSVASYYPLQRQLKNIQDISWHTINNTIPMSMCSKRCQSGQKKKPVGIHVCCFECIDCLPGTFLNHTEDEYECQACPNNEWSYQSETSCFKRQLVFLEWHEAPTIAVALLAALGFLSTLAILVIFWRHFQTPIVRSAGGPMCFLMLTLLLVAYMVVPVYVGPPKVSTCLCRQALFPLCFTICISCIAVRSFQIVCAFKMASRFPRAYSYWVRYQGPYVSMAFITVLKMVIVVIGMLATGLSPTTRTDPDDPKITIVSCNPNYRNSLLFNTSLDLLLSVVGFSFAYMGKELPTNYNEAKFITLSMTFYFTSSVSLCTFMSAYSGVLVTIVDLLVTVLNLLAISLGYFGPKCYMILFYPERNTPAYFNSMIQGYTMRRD
T1 sequence (Q7RTX0 21-852): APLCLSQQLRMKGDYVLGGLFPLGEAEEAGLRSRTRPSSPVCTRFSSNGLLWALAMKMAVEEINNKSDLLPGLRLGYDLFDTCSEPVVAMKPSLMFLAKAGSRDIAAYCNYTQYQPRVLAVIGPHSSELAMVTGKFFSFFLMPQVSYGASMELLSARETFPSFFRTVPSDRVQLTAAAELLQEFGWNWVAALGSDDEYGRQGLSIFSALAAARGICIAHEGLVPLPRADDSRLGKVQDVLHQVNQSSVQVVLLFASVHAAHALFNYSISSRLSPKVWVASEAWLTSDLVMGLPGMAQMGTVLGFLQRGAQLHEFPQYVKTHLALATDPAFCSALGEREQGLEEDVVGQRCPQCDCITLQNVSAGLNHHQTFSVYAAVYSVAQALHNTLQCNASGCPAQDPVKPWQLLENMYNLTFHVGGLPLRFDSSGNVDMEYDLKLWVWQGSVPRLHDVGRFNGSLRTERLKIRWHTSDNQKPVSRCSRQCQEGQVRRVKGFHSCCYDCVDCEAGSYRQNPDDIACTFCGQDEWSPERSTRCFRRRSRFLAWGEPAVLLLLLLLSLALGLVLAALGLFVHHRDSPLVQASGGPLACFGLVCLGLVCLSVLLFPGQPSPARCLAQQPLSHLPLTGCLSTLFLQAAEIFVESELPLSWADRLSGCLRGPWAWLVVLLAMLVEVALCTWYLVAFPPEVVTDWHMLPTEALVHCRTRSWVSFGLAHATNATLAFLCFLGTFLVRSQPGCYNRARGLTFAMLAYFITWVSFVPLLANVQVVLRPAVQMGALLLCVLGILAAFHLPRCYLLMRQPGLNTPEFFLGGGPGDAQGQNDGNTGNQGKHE

[3] = target: T1, sweet taste receptor (T1R2/T1R3); assay: Sensory evaluation (spit test, VAS scale) of sweetness intensity with lactisole, relative to lactisole-free solution; assay type: in vivo; set-up: The sweet taste receptor is expressed naturally on the cell surface of each taste cell; from tissue; host or cells: tongue (taste cells) of living human panelists; spit test; details: remaining sweetness with 100 ppm lactisole expressed as sucrose solution

Relative sweetness intensity (%) [2] | sweetness level corresponding to sucrose solution [3] | SMILES | Degree of Sweetness [1] | sweetness intensity relative to the sweetness intensity of sucrose ([1]; estimate used to design sample solutions)
– | – | O=C(CO)[C@H](O)[C@H](O)[C@H](O)CO [D-allulose] | 0.7 | –
≥ 50% | – | O=C(CO)[C@@H](O)[C@@H](O)[C@H](O)CO [D-tagatose] | 0.9 | –
– | – | O=C[C@H](O)[C@H](O)[C@H](O)[C@H](O)CO [Allose] | 0.8 | –
– | – | OC[C@H]1O[C@H](O[C@H]2[C@H](O)[C@@H](O)[C@H](O)O[C@@H]2CO)[C@H](O)[C@@H](O)[C@@H]1O [Maltose] | 0.4 | –
– | 0.144 w/v % | OC[C@H]1O[C@H](O[C@]2(CCl)O[C@H](CCl)[C@@H](O)[C@@H]2O)[C@H](O)[C@@H](O)[C@H]1Cl [sucralose] | – | 600 times
– | 2.0 w/v % | OC[C@H]1O[C@@](CO)(O[C@H]2O[C@H](CO)[C@@H](O)[C@H](O)[C@H]2O)[C@@H](O)[C@@H]1O [sucrose] | 1 | –
